Experimental findings from US20240043859A1, “HERBICIDE-RESISTANT PROTEIN, AND GENE AND USE THEREOF” (QINGDAO KINGAGROOT CHEMICAL COMPOUND CO., LTD., priority 2020, published 2024) are described below.

One test addresses T1, AAD-12 (Delftia acidovorans, UniProt P83309).
T1 construct: made in house; host or cells: E. coli BL21(DE3)
The test is described as follows: Degradation activities of AAD-12 on phenoxy acetic acid herbicides by spectrophotometry (A510). In kind it is biochemical, Comamonas acidovorans. Conditions: for A510 of reaction group, Reaction 1 / A510 of reaction group, Reaction 2 / A510 of reaction group, Reaction 3: AAD-12 enzyme with substrate, chromogenic detection at 510 nm; for Increased A510: reaction group versus blank group. The method, then: As reported in literature (Fukomori and Flausinger, Purification and characterization of 2,4-dichlorophenoxyacetate/alpha-ketoglutarate dioxygenase Journal of Biological Chemistry (1993) 268(32): 24311-24317), the constructed expression vector pET15b-AAD12 was transformed into E. coli BL21(DE3) and induced by IPTG for expression. After cells were collected and lysed, Ni-NTA column was used for purification and the purity of the protein was analyzed by SDS-PAGE.
Since phenolic products were produced by AAD-12-substrate catalytic reaction, 4-aminoantipyrine and potassium ferricyanide could be used to develop color with the products in an alkaline environment to generate red products with absorption at 510 nm, and the relevant parameters were directly read with a microplate reader.

The subject of test [1] is Arabidopsis thaliana. The test is described as follows: Herbicide resistance of transgenic Arabidopsis thaliana seedlings on plate medium (root growth). Conditions: plate medium: 2,4-D 0.3 μmol; 2,4-DB sodium 0.7 μmol; MCPA 0.1 μmol. The test is classed as in vivo. The method, then: Expression in Arabidopsis thaliana was regulated by its AtUbi10 Arabidopsis thaliana ubiquitin promoter and the MAS (mannopine synthase) terminator. Hygromycin resistance gene (HygR=hpt) served as the selection marker.
Preparation of Agrobacterium infection solution: An activated Agrobacterium (GV3101) monoclone was picked and inoculated in 30 ml YEP liquid medium [yeast powder 10 g/L, tryptone 10 g/L, NaCl 5 g/L, 25 mg/L Rifampicin and 50 mg/L Kanamycin], shaking-cultured at 200 rmp/min, 28° C. overnight until the OD600 was about 1.0-1.5, then centrifuged at 6000 rmp/min for 10 min to collect the bacteria, and the supernatant was discarded. Arabidopsis thaliana infection solution (sucrose 50 g/L, Silwet L-77 300 μL/L, no need to adjust pH) was used to resuspend the cells to OD600=0.8 for later use.
Genetic transformation of Arabidopsis thaliana by flower dipping: Before transformation of Arabidopsis thaliana plants, attentions were paid to whether the plants were growing well, the inflorescences were abundant, and no stress response occurred. The first transformation was performed when plants were about 20 cm high. Plants could be properly watered if the soil was dry. The grown siliques were cut off with scissors the day before transformation. The inflorescences of the plants to be transformed were soaked in the above-mentioned Agrobacterium solution for 30 seconds to 1 minute, which was stirred gently during the period. And a layer of liquid film should appear on the infiltrated plant. The transformed plants were cultured in a dark environment for 24 hours, and then taken out and grown in a normal light environment. A second transformation could be performed in the same way a week later. […]

In test [2] the test system is Arabidopsis thaliana. The test is described as follows: Spray testing of T2 generation transgenic Arabidopsis thaliana. In kind it is in vivo. The settings on record: 100 g/ha foliage spray, 10 days after spraying. An excerpt: The T2 generation seedlings of four representative transformants, pQY2309, pQY2310, pQY2311 and pQY2313, were selected for further spray testing. Four lines were randomly selected from the T2 generation generated by transformation of each vector, and respectively foliage-sprayed with 2,4-D (100 g/ha), MCPA (100 g/ha) and 2,4-DB sodium (100 g/ha) when Arabidopsis thaliana seeds germinated, transplanted and the seedlings grew to 5-7 leaf. Non-transgenic wild-type Col-0 served as a negative control. The level of resistance was assessed 10 days after spraying.

Entries after “also recorded” stand apart in the source; their conditions may differ.

T1 sequence (P83309 2-292, added parts left off): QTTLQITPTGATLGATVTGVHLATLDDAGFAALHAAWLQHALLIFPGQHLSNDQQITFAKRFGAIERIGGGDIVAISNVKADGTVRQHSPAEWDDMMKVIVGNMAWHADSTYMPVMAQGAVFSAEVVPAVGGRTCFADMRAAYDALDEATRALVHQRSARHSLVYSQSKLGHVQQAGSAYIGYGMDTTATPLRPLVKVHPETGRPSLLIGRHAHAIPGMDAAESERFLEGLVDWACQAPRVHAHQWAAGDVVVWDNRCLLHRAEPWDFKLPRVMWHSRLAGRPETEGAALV

`CC(C)CCCCCOC(=O)COc1ccc(Cl)cc1Cl` [2,4-D isooctyl ester]: on AAD-12, the “Degradation activity of expressed AAD-12 enzyme on the substrate” value (“Degradation activity” below) was “degradation activities”; the “A510 of reaction group, Reaction 1” value was determined as 0.1570; the “A510 of reaction group, Reaction 2” value was 0.1578; the “A510 of reaction group, Reaction 3” value is 0.1497. The “Increased A510” value on AAD-12 was “+0.019”.
With `O=C([O-])CCCOc1ccc(Cl)cc1Cl.[Na+]` [2,4-DB sodium, reference compound], the “Effect of the herbicide on seminal roots of wild-type Col-0” value in the test on Arabidopsis thaliana [1] is recorded as “seminal roots are inhibited; also recorded: seminal roots are not able to grow”. Further, in the test with Arabidopsis thaliana [2], the “Effect of the herbicide spray on wild-type Col-0” value is “all or almost all non-transgenic wild-type Arabidopsis thaliana died; also recorded: severely injured”.
`O=C(O)CCCOc1ccc(Cl)cc1Cl` [2,4-DB, 4-(2,4-dichlorophenoxy)butanoic acid]: at AAD-12, the “Degradation activity” value is reported as “degradation activities”; the “A510 of reaction group, Reaction 1” value was determined as 0.1373; the “A510 of reaction group, Reaction 2” value was determined as 0.1326; the “A510 of reaction group, Reaction 3” value is 0.1345. Further, on AAD-12, the “Increased A510” value is “+0.017”.
As to `Cc1cc(Cl)ccc1OCC(=O)O` [MCPA, (4-chloro-2-methylphenoxy)acetic acid], the “Effect of the herbicide on seminal roots of wild-type Col-0” value in the test with Arabidopsis thaliana [1] is given as “seminal roots are inhibited; also recorded: seminal roots are not able to grow”. In addition, the “Effect of the herbicide spray on wild-type Col-0” value with Arabidopsis thaliana [2] is recorded as “all or almost all non-transgenic wild-type Arabidopsis thaliana died; also recorded: all die”. Also, on AAD-12, the “Degradation activity” value is listed as “degradation activities”; the “A510 of reaction group, Reaction 1” value was 0.1998; the “A510 of reaction group, Reaction 2” value was 0.2076; the “Increased A510” value is “+0.035”.
